Measurements: patent publication US20190069550A1, “HERBICIDAL COMPOSITIONS CONTAINING PYRIDINE CARBOXYLIC ACIDS OR DERIVATIVES THEREOF, WITH PDS AND VLCFA INHIBITORS, OR DERIVATIVES THEREOF” (Dow AgroSciences LLC, priority 2017, published 2019)
Values joined by “and” are separate entries in the source; they are usually repeats but may differ in a detail not shown here. Equal values may be shown once.

Legend:
Type in all cases: in vivo
Settings in all cases: 20-22 d
[1] = test system: Polygonum convolvulus (wild buckwheat); experiment: Postemergence herbicidal activity, greenhouse, POLCO
Description: (§1) Seeds of the desired test plant species were planted in Sun Gro MetroMix® 360 planting mixture, which typically has a pH of 6.0 to 6.8 and an organic matter content of about 30 percent, in plastic pots with a surface area of 103.2 square centimeters (cm^2). When required to ensure good germination and healthy plants, a fungicide treatment and/or other chemical or physical treatment was applied. The plants were grown for 7-36 days (d) in a greenhouse with an approximate 14-hour (h) photoperiod which was maintained at about 23° C. during the day and 22° C. during the night. Nutrients and water were added on a regular basis and supplemental lighting was provided with overhead metal halide 1000-Watt lamps as necessary. The plants were employed for testing when they reached the second or third true leaf stage.
(§2) Weighed amounts of technical material were dissolved in a volume of 97:3 volume per volume (v/v) acetone/dimethyl sulfoxide (DMSO) to make stock solutions. […] The concentrated stock solutions were diluted with an aqueous mixture of 1.5% v/v of Agri-dex crop oil concentrate to provide the appropriate application rates. […]
(§3) The treated plants and control plants were placed in a greenhouse as described above and watered by sub-irrigation to prevent wash-off of the test compounds. After 20-22 d, the condition of the test plants as compared with that of the control plants was determined visually and scored on a scale of 0 to 100 percent where 0 corresponds to no injury and 100 corresponds to complete kill. The condition of the test plants was compared with that of the control plants as determined visually and scored on a scale of 0 to 100 percent, where 0 corresponds to no injury and 100 corresponds to complete kill. […]
(§4) Compound 1 was formulated as an EC and was combined with phytoene desaturase inhibitor herbicides, very long chain fatty acid inhibitor herbicides, or mixtures thereof, and applied to weeds, and the phytotoxicity of the herbicidal composition was measured. […]

[2] = test system: Euphorbia heterophylla (poinsettia); experiment: Postemergence herbicidal activity, greenhouse, EPHHL
Description: as §1
(§5) Weighed amounts of technical material were dissolved in a volume of 97:3 volume per volume (v/v) acetone/dimethyl sulfoxide (DMSO) to make stock solutions. […] The concentrated stock solutions were diluted with an aqueous mixture of 1.5% v/v of Agri-dex crop oil concentrate to provide the appropriate application rates. Compound requirements are based upon a 12 milliliter (mL) application volume at a rate of 187 liters per hectare (UJha). Spray solutions of the experimental compound mixtures were prepared by adding the stock solutions to the appropriate amount of dilution solution to form a 12 mL spray solution in two-way combinations. Formulated compounds were applied to the plant material with an overhead Mandel track sprayer equipped with 8002E nozzles calibrated to deliver 187 L/ha over an application area of 0.503 square meters (m^2) at a spray height of 18 inches ([…] (cm)) above average plant canopy. Control plants were sprayed in the same manner with the solvent blank. Application rates for component (a) are in g ae/ha, and application rates for component (b) are in g ai/ha.
The treated plants and control plants were placed in a greenhouse as described above and watered by sub-irrigation to prevent wash-off of the test compounds. After 20-22 d, the condition of the test plants as compared with that of the control plants was determined visually and scored on a scale of 0 to 100 percent where 0 corresponds to no injury and 100 corresponds to complete kill. The condition of the test plants was compared with that of the control plants as determined visually and scored on a scale of 0 to 100 percent, where 0 corresponds to no injury and 100 corresponds to complete kill. Colby's equation was used to determine the herbicidal effects expected from the mixtures.
as §4

[3] = test system: Abutilon theophrasti (velvetleaf); experiment: Postemergence herbicidal activity, greenhouse, ABUTH
Description: as §1, §2, §3, §4

[4] = test system: Digitaria sanguinalis (large crabgrass); experiment: Postemergence herbicidal activity, greenhouse, DIGSA
Description: as §1, with “The plants were employed for testing when they reached the second or third true leaf stage.” left out
as §3

[5] = test system: Stellaria media (chickweed); experiment: Postemergence herbicidal activity, greenhouse, STEME
Description: as §1, with “The plants were employed for testing when they reached the second or third true leaf stage.” left out
as §3

[6] = test system: Viola tricolor (wild pansy); experiment: Postemergence herbicidal activity, greenhouse, VIOTR
Description: as §1, §2, §3, §4

Oryza sativa (rice) = experiment: Postemergence crop injury, greenhouse, ORYSA
Description: as §1, with “The plants were employed for testing when they reached the second or third true leaf stage.” left out
as §3

Zea mays (maize/corn) = experiment: Postemergence crop injury, greenhouse, ZEAMX
Description: as §1, §2, §3, §4

[7] = test system: Amaranthus retroflexus (pigweed); experiment: Postemergence herbicidal activity, greenhouse, AMARE
Description: as §1, §2, §3, §4

[8] = test system: Veronica hederifolia (ivyleaf speedwell); experiment: Postemergence herbicidal activity, greenhouse, VERHE
Description: as §1, with “The plants were employed for testing when they reached the second or third true leaf stage.” left out
as §3

[9] = test system: Sorghum vulgare (grain sorghum); experiment: Postemergence herbicidal activity, greenhouse, SORVU
Description: as §1, §2, §3, §4

[10] = test system: Ipomoea hederacea (ivyleaf morningglory); experiment: Postemergence herbicidal activity, greenhouse, IPOHE
Description: as §1, §2, §3, §4

[11] = test system: Triticum aestivum (winter wheat); experiment: Postemergence crop injury, greenhouse, TRZAW
Description: as §1, §2, §3, §4

[12] = test system: Cirsium arvense (thistle); experiment: Postemergence herbicidal activity, greenhouse, CIRAR
Description: as §1, §5, §3, §4

Kochia scoparia (kochia) = experiment: Postemergence herbicidal activity, greenhouse, KCHSC
Description: as §1, §2, §3, §4

[13] = test system: Cyperus esculentus (nutsedge); experiment: Postemergence herbicidal activity, greenhouse, CYPES
Description: When required to ensure good germination and healthy plants, a fungicide treatment and/or other chemical or physical treatment was applied. The plants were grown for 7-36 days (d) in a greenhouse with an approximate 14-hour (h) photoperiod which was maintained at about 23° C. during the day and 22° C. during the night. Nutrients and water were added on a regular basis and supplemental lighting was provided with overhead metal halide 1000-Watt lamps as necessary. The plants were employed for testing when they reached the second or third true leaf stage. Weighed amounts of technical material were dissolved in a volume of 97:3 volume per volume (v/v) acetone/dimethyl sulfoxide (DMSO) to make stock solutions. […] The concentrated stock solutions were diluted with an aqueous mixture of 1.5% v/v of Agri-dex crop oil concentrate to provide the appropriate application rates. Compound requirements are based upon a 12 milliliter (mL) application volume at a rate of 187 liters per hectare (UJha). Spray solutions of the experimental compound mixtures were prepared by adding the stock solutions to the appropriate amount of dilution solution to form a 12 mL spray solution in two-way combinations. […] Control plants were sprayed in the same manner with the solvent blank. Application rates for component (a) are in g ae/ha, and application rates for component (b) are in g ai/ha. The treated plants and control plants were placed in a greenhouse as described above and watered by sub-irrigation to prevent wash-off of the test compounds. […] Colby's equation was used to determine the herbicidal effects expected from the mixtures. Compound 1 was formulated as an EC and was combined with phytoene desaturase inhibitor herbicides, very long chain fatty acid inhibitor herbicides, or mixtures thereof, and applied to weeds, and the phytotoxicity of the herbicidal composition was measured. […]

[14] = test system: Chenopodium album L. (common lambsquarters); experiment: Postemergence herbicidal activity, greenhouse, CHEAL
Description: as §1, §5, §3, §4

[15] = test system: Echinochloa crus-galli (barnyardgrass); experiment: Postemergence herbicidal activity, greenhouse, ECHCG
Description: as §1, §2, §3, §4

[16] = test system: Brassica napus (spring rape); experiment: Postemergence herbicidal activity, greenhouse, BRSNN
Description: as §1, §2, §3, §4

Nc1c(F)c(-c2ccc3cc[nH]c3c2F)nc(C(=O)O)c1Cl [Compound 1]
% Visual Injury ([1]; 5 g ae/ha): 70%
% Visual Injury ([2]; 5 g ae/ha): 97% and 75%
% Visual Injury ([2]; 10 g ae/ha): 100%
% Visual Injury ([3]; 10 g ae/ha): 50%
% Visual Injury ([4]; 5 g ae/ha): 0%
% Visual Injury ([5]; 5 g ae/ha): 65%
% Visual Injury ([6]; 5 g ae/ha): 10% and 5%
% Visual Injury (Oryza sativa (rice); 5 g ae/ha): 0%
% Visual Injury (Zea mays (maize/corn); 5 g ae/ha): 10%
% Visual Injury ([7]; 5 g ae/ha): 93% and 65%
% Visual Injury ([8]; 5 g ae/ha): 40%
% Visual Injury ([9]; 5 g ae/ha): 60%
% Visual Injury ([10]; 5 g ae/ha): 20%
% Visual Injury ([11]; 5 g ae/ha): 10%
% Visual Injury ([12]; 10 g ae/ha): 60%
% Visual Injury (Kochia scoparia (kochia); 5 g ae/ha): 65%
% Visual Injury ([13]; 5 g ae/ha): 10%
% Visual Injury ([14]; 5 g ae/ha): 90% and 80%
% Visual Injury ([14]; 10 g ae/ha): 95%
% Visual Injury ([15]; 5 g ae/ha): 60%
% Visual Injury ([16]; 5 g ae/ha): 50%

O=C(Nc1ccc(F)cc1F)c1cccnc1Oc1cccc(C(F)(F)F)c1 [Diflufenican, N-(2,4-difluorophenyl)-2-[3-(trifluoromethyl)phenoxy]-3-pyridinecarboxamide]
% Visual Injury ([1]; diflufenican 50 g ai/ha): 10%
% Visual Injury ([2]; diflufenican 50 g ai/ha): 10%
% Visual Injury ([3]; diflufenican 50 g ai/ha): 0%
% Visual Injury ([4]; diflufenican 50 g ai/ha): 10%
% Visual Injury (Oryza sativa (rice); diflufenican 50 g ai/ha): 0%
% Visual Injury (Zea mays (maize/corn); diflufenican 50 g ai/ha): 5%
% Visual Injury ([9]; diflufenican 50 g ai/ha): 0%
% Visual Injury ([10]; diflufenican 50 g ai/ha): 0%
% Visual Injury ([11]; diflufenican 50 g ai/ha): 0%
% Visual Injury ([12]; diflufenican 50 g ai/ha): 20%
% Visual Injury (Kochia scoparia (kochia); diflufenican 50 g ai/ha): 10%
% Visual Injury ([13]; diflufenican 50 g ai/ha): 0%
% Visual Injury ([15]; diflufenican 50 g ai/ha): 0%
% Visual Injury ([16]; diflufenican 50 g ai/ha): 20%

CC(C)N(C(=O)COc1nnc(C(F)(F)F)s1)c1ccc(F)cc1 [Flufenacet, N-(4-fluorophenyl)-N-(1-methylethyl)-2-[[5-(trifluoromethyl)-1,3,4-thiadiazol-2-yl]oxy]acetamide]
% Visual Injury ([2]; flufenacet 60 g ai/ha): 0%
% Visual Injury ([3]; flufenacet 60 g ai/ha): 0%
% Visual Injury ([12]; flufenacet 60 g ai/ha): 0%
% Visual Injury ([14]; flufenacet 60 g ai/ha): 10%

O=C(Nc1ccc(F)cc1)c1cccc(Oc2cccc(C(F)(F)F)c2)n1 [Picolinafen, N-(4-fluorophenyl)-6-[3-(trifluoromethyl)phenoxy]-2-pyridinecarboxamide]
% Visual Injury ([1]; picolinafen 12.5 g ai/ha): 0%
% Visual Injury ([6]; picolinafen 12.5 g ai/ha): 10%
% Visual Injury (Zea mays (maize/corn); picolinafen 12.5 g ai/ha): 5%
% Visual Injury ([7]; picolinafen 12.5 g ai/ha): 20%
% Visual Injury ([9]; picolinafen 12.5 g ai/ha): 0%
% Visual Injury ([10]; picolinafen 12.5 g ai/ha): 5%
% Visual Injury ([11]; picolinafen 12.5 g ai/ha): 0%
% Visual Injury ([12]; picolinafen 12.5 g ai/ha): 10%
% Visual Injury ([13]; picolinafen 12.5 g ai/ha): 0%
% Visual Injury ([15]; picolinafen 12.5 g ai/ha): 10%
% Visual Injury ([16]; picolinafen 12.5 g ai/ha): 25%

Cn1nc(C(F)(F)F)c(CS(=O)(=O)C2=NOC(C)(C)C2)c1OC(F)F [Pyroxasulfone, 3-[[[5-(difluoromethoxy)-1-methyl-3-(trifluoromethyl)-1H-pyrazol-4-yl]methyl]sulfonyl]-4,5-dihydro-5,5-dimethylisoxazole]
% Visual Injury ([2]; pyroxasulfone 100 g ai/ha): 0%
% Visual Injury ([5]; pyroxasulfone 100 g ai/ha): 40%
% Visual Injury ([6]; pyroxasulfone 100 g ai/ha): 0%
% Visual Injury ([7]; pyroxasulfone 100 g ai/ha): 0%
% Visual Injury ([8]; pyroxasulfone 100 g ai/ha): 0%
% Visual Injury (Kochia scoparia (kochia); pyroxasulfone 100 g ai/ha): 0%
% Visual Injury ([14]; pyroxasulfone 100 g ai/ha): 10%
